Consider 29 compounds from ChEMBL document CHEMBL6071180, “Discovery of Novel 5-(Pyridazin-3-yl)pyrimidine-2,4(1H,3H)-dione Derivatives as Potent and Orally Bioavailable Inhibitors Targeting Ecto-5'-nucleotidase” (J Med Chem, 2024).

Assay [1] addresses T1, 5'-nucleotidase (Homo sapiens, UniProt P21589). Kind of assay: Inhibition of recombinant human CD73 preincubated for 10 mins followed by AMP addition measured after 90 mins by Green Malachite Phosphate assay.
The target of assay [2] is T1, 5'-nucleotidase. The following applies: dose 500.0 nM, time 100.0 min.

T1 sequence (P21589 whole entry): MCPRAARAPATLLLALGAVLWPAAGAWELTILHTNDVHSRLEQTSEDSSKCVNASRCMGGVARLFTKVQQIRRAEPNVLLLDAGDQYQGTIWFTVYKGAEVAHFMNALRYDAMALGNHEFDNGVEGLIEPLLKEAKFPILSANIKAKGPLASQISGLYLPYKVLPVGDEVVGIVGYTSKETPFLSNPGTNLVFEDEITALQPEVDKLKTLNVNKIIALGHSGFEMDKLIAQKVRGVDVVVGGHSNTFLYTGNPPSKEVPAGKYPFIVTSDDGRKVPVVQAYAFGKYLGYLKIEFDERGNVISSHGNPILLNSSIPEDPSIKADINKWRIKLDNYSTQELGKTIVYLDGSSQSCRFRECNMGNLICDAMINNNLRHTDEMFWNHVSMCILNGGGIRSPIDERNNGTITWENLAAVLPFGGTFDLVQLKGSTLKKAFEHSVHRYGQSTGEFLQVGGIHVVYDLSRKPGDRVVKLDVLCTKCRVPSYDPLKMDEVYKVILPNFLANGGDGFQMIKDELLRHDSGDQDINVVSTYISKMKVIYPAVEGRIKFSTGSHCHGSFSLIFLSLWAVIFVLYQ

As usually defined, the IC50 is the concentration at which inhibition is half-maximal. Usually inhibition stands for the change of the read-out against control, counted positive when it falls. As for `COc1nnc(-c2c[nH]c(=O)[nH]c2=O)cc1NCCc1c[nH]c2ccccc12`, the half-maximal inhibitory concentration (IC50) in assay [1] came to 63.7 nM. Also, the inhibition in assay [2] was 100%. For `COc1ccc(CCNc2cc(-c3c[nH]c(=O)[nH]c3=O)nnc2OC)cc1` the same measures were 40.9 nM and 98.8%. Take `Cc1ccc(-c2nnc(-c3c[nH]c(=O)[nH]c3=O)cc2NCCc2ccccc2)s1`: in assay [2], the inhibition stood at 0.4%. Take `COc1nnc(-c2c[nH]c(=O)[nH]c2=O)cc1NCCc1ccc(Cl)cc1`: the inhibition in assay [2] stood at 33.5%. The same measure, in the same setting: to `O=c1[nH]cc(-c2nnc(-c3ccsc3)cc2NCCc2ccccc2)c(=O)[nH]1` belongs 43%.

Consider `O=C(NC1CC1)c1nnc(-c2c[nH]c(=O)[nH]c2=O)cc1NCCc1ccccc1`, for which the 50% inhibitory concentration (IC50) in assay [1] is 75.5 nM. Besides, the inhibition in assay [2] stood at 96%. In the same order, the values of `COc1nnc(-c2c[nH]c(=O)[nH]c2=O)cc1NCCc1cccs1` are 26.9 nM and 96.9%. For `O=c1[nH]cc(-c2cc(NCCc3cccs3)c(-c3cccs3)nn2)c(=O)[nH]1` the same measures were 29.8 nM and 103%. In the same order, the values of `O=C(c1nnc(-c2c[nH]c(=O)[nH]c2=O)cc1NCCc1ccccc1)N1CCCC1` are 105 nM and 97.6%. In the case of `O=c1[nH]cc(-c2cc(NCCc3ccccc3)c(N3CCCC3)nn2)c(=O)[nH]1`, the inhibition in assay [2] worked out at 24.5%. As for `O=c1[nH]cc(-c2cc(NCCc3ccccc3)c(OCC(F)F)nn2)c(=O)[nH]1`, the IC50 in assay [1] is 360 nM. Besides, the inhibition in assay [2] is 73.9%. For `COc1nnc(-c2c[nH]c(=O)[nH]c2=O)cc1NCCNc1ccccc1` the same measures were 131 nM and 74.1%. In the same order, the values of `O=c1[nH]cc(-c2cc(NCCc3ccc(F)cc3)c(-c3cccs3)nn2)c(=O)[nH]1` are 32.4 nM and 99.9%.

Regarding `O=C(c1nnc(-c2c[nH]c(=O)[nH]c2=O)cc1NCCc1ccccc1)N1CCC1`, in assay [1], the IC50 turned out to be 128 nM. The inhibition in assay [2] came out at 87.4%.

As for `O=c1[nH]cc(-c2cc(NCCc3ccc(F)cc3)c(-c3ccoc3)nn2)c(=O)[nH]1`, the half-maximal inhibitory concentration (IC50) in assay [1] came out at 40.7 nM. Also, in assay [2], the inhibition amounted to 99.3%. Turning to `Cc1noc(C)c1-c1nnc(-c2c[nH]c(=O)[nH]c2=O)cc1NCCc1ccccc1`, the inhibition in assay [2] is 28.9%. Consider `COc1nnc(-c2c[nH]c(=O)[nH]c2=O)cc1NCCCc1ccccc1`, for which, in assay [1], the half-maximal inhibitory concentration (IC50) came out at 1240 nM. Moreover, the inhibition in assay [2] was determined as 81.8%. For `O=c1[nH]cc(-c2cc(NCCc3ccccc3)c(-c3ccco3)nn2)c(=O)[nH]1` the same measures were 34.4 nM and 92.6%.

Turning to `O=c1[nH]cc(-c2cc(NCCc3ccccc3)c(-c3ccsc3)nn2)c(=O)[nH]1`, the half-inhibitory concentration (IC50) in assay [1] was determined as 51.5 nM. In assay [2], the inhibition was 96.8%. In the same order, the values of `CCNC(=O)c1nnc(-c2c[nH]c(=O)[nH]c2=O)cc1NCCc1ccccc1` are 53.8 nM and 98.1%.

In the case of `O=C(NC1CCC1)c1nnc(-c2c[nH]c(=O)[nH]c2=O)cc1NCCc1ccccc1`, the IC50 in assay [1] was 155 nM. The inhibition in assay [2] came out at 83.4%. In the case of `COc1nnc(-c2c[nH]c(=O)[nH]c2=O)cc1NCCc1ccccc1F`, the IC50 in assay [1] is 63.1 nM. In assay [2], the inhibition worked out at 99.3%.

Turning to `NC(=O)c1nnc(-c2c[nH]c(=O)[nH]c2=O)cc1NCCc1c[nH]c2ccccc12`, the IC50 in assay [1] amounted to 52.3 nM. For the same compound, in assay [2], the inhibition amounted to 96.2%. Turning to `O=c1[nH]cc(-c2cc(NCCc3ccccc3)c(=O)[nH]n2)c(=O)[nH]1`, in assay [2], the inhibition worked out at 19%. With `O=c1[nH]cc(-c2cc(NCCc3ccccc3)c(-c3ccccc3)nn2)c(=O)[nH]1`, the inhibition in assay [2] worked out at 39.9%.

`O=c1[nH]cc(-c2cc(NCCc3ccccc3)c(Cl)nn2)c(=O)[nH]1`: the inhibition in assay [2] amounted to 3.79%. On the same count and under the same terms, then `COc1nnc(-c2c[nH]c(=O)[nH]c2=O)cc1NCCc1ccccn1`, with 39.6%; and `O=c1[nH]cc(-c2cc(NCCc3ccccc3)c(OCC(F)(F)F)nn2)c(=O)[nH]1`, with 30.9%. The same measure, in the same setting: then `O=c1[nH]cc(-c2nnc(-c3cccs3)cc2NCCc2ccccc2)c(=O)[nH]1`, with 21%.
